Measured values: US20220378821A1, “METHODS OF TREATING BRAF-MUTATED CANCER CELLS” (EFFECTOR THERAPEUTICS, INC., priority 2019, published 2022)
Like-named read-outs stand apart in the source and are kept apart here.

Assays:
[1] = test system: panel of 100 tumor cell lines; experiment: OncoPanel apoptosis profiling (activated caspase-3); format: cell-based
Experimental: (§1) In order to assess cellular phenotypes arising from eIF4E inhibition, Compound X was profiled in a panel of 100 tumor cell lines. Compound X was profiled using the OncoPanel Cell-Based Profiling Service (Eurofins Pharma Discovery Services, St. Charles, Mo.). Briefly, cell lines used in the panel were grown in RPMI 1640, 10% FBS, 2 mM L-alanyl-L-glutamine, 1 mM Na pyruvate, or a special medium. Cells were seeded into 384-well plates and incubated in a humidified atmosphere of 5% CO2 at 37° C. Compounds were added the day following cell seeding. At the same time, a time zero untreated cell plate was generated. After a 3-day incubation period, cells were fixed and stained with fluorescently-labeled antibodies and nuclear dye to allow imaging of nuclei, apoptotic cells and mitotic cells.
(§2) was serially diluted in half-log steps from 10 μM and assayed over 10 concentrations with a maximum assay concentration of 0.1% DMSO. Automated fluorescence microscopy was carried out using a Molecular Devices ImageXpress Micro XL high-content imager, and images were collected with a 4× objective. 16-bit TIFF images were acquired and analyzed with MetaXpress 5.1.0.41 software.
An antibody to activated caspase-3 was used to label cells from early to late stage apoptosis (Thornberry et al., 1998, Science 281:1312-1316). […] A 5-fold induction in the caspase-3 signal was scored as a significant apoptosis induction.

[2] = test system: panel of 100 tumor cell lines; experiment: OncoPanel cell proliferation profiling (nuclear dye relative cell count); format: cell-based; details: for IC50: across the panel of 100 cell lines
Experimental: as §1, §2
Cell proliferation was measured by the fluorescence intensity of an incorporated nuclear dye. The output is referred to as the relative cell count, where the measured nuclear intensity is transformed to percent of control (POC) using the following formula: […]
where Ix the nuclear intensity at concentration x, and I0 is the average nuclear intensity of the untreated vehicle wells.
Cellular response parameters were calculated using nonlinear regression to a sigmoidal single-site dose response model:
where y is a response measured at concentration x, A and B are the lower and upper limits of the response, C is the concentration at the response midpoint (EC50), and D is the Hill Slope (Fallahi-Sichani et al., 2013, Nat. Chem. Biol. 9:708-714).
Cell count IC50 is the test compound concentration at 50% of maximal possible response.

[3] = test system: COLO 205 xenografts (BRAF mutant); experiment: In vivo tumor growth inhibition, COLO 205 xenografts; details: for tumor growth inhibition (TGI): COLO 205 xenografts
Experimental: To test whether eIF4E inhibition affected the growth of BRAF mutant tumors in vivo, COLO 205 cells were grown as tumor xenografts in athymic nude mice and animals were dosed daily with vehicle or Compound Y, having the following structure
(§3) Athymic nude mice were purchased from Simonsen Laboratories (Gilroy, Calif.). C.B-17 SCID mice were purchased from Charles River (Hollister, Calif.). All animal studies were carried out in accordance with the guidelines established by the Institutional Animal Care and Use Committee at Explora BioLabs (San Diego, Calif.). COLO 205 and RKO cells were purchased from ATCC (Manassas, Va.). COLO 205 cells were maintained in RPMI-1640 supplemented with 10% fetal bovine serum. RKO cells were maintained in DMEM supplemented with 10% fetal bovine serum. For COLO 205 xenograft studies, COLO 205 (2×10^6) cells were implanted subcutaneously into athymic nude mice. On day 8 post-implant, tumors were measured (˜103 mm^3) and tumor-bearing animals were randomized into treatment groups. For RKO xenograft studies, RKO cells (5×10^6) were implanted subcutaneously into C.B-17 SCID mice. On day 11 post-implant, tumors were measured (˜153 mm^3) and tumor-bearing animals were randomized into treatment groups. Animals were dosed orally with vehicle or Compound Y daily. Tumor size and body weight were monitored during the course of the study. Tumor size was measured in length and width with a caliper 2× per week. The tumor volume was calculated by the formula L×W×W/2 according to NCI standards.

[4] = test system: RKO xenografts (BRAF mutant); experiment: In vivo tumor growth inhibition, RKO xenografts
Experimental: as §3

## Cc1cc(-c2cc(Cl)ccc2OCCn2c(C)nc3cc(C(F)(F)F)c(CN4CCN(C)CC4)c(C#N)c3c2=O)c2scc(C(=O)O)c2n1 [Compound X]
[1]; of the 36 cell lines with >5-fold activated caspase-3
  BRAF mutant cell lines among those with significant induction of apoptosis: 10
[1]; of the panel of 100 cell lines
  cell lines that showed significant induction of apoptosis (>5-fold induction of activated caspase-3): 36
[2]; 72 h, 3-day incubation, read-out: median IC50 value for cell proliferation
  IC50: 116 nM
[2]; upper end printed as >10,000 nM, read-out: distribution of IC50 values for cell proliferation
  IC50: 12 to 10000 nM
[2]; hematological, head and neck, NSCLC, melanoma, uterine and pancreatic tumor cell lines
  cell lines tested with IC50 values below the median: > 74%

## Cc1cc(-c2cc(Cl)ccc2OCCn2c(C)nc3cc(C(F)(F)F)c(N4CCN(C)CC4)c(C#N)c3c2=O)c2scc(C(=O)O)c2n1 [Compound Y]
[3]; COLO 205 study, no significant changes in body weight
  tolerability (body weight): well tolerated
[3]; 3 mg/kg orally daily
  tumor growth inhibition (TGI): 49%
[3]; 30 mg/kg orally daily
  tumor growth inhibition (TGI): 89%
[4]; RKO study, no significant changes in body weight
  tolerability (body weight): well tolerated
[4]; RKO xenografts, 30 mg/kg orally daily
  tumor growth inhibition (TGI): 54%
